Literature values as cited in article PMC5763161 (Molecular Therapy, 2017).

Test system: dystrophin exon skipping
Conditions: mdx mice

Substance: ASSLNIA
- delivery or exon-skipping levels when conjugated to a PMO: unable to increase
